Molecules are shown by their SMILES.

One assay relates to rat liver microsome. In words: ADP/Fe^3+ induced lipid peroxidation reaction using rat liver microsome (anti-oxidant action). It counts as biochemical. The settings on record: for inhibition action on lipid peroxidation compared with BHT: versus BHT, positive control (FIG. 1). On the procedure:
Test Example 1 [Anti-oxidant-action (lipid peroxide production inhibiting action)]
Compounds II-VII represented by the following formulae [drawing 3] have shown concentration dependent inhibition action on ADP/Fe^3+ induced lipid peroxidation reaction using rat liver microsome.
Test method (ADP/Fe^3+ induced lipid peroxidation reaction)
The method of Kiso et al. was employed. That means, 100 μl of a rat liver microsome suspension (20 mg of protein/ml), 100 μl of a 2 mM NADPH, 100 μl of a 10 mM ADP, and 100 μl of a specimen solution whose concentration was controlled with a 10% N,N-dimethylformamide (DMF) aqueous solution were added to 500 μl of a trihydroxymethylaminomethane (Tris)-HCl buffer solution (167 mM KCl, 74.4 mM Tris, pH 7.4) and heated at 37° C. for 5 minutes. Then 100 μl of 100 μM FeCl3 was added thereto and heated at 37° C. for 20 minutes
To a control was added 100 μl of a 10% DMF aqueous solution instead of the specimen solution. To a blank, 100 μl of a 10% DMF aqueous solution was added instead of the specimen solution, and 300 μl of water was added instead of 100 μl of the NADPH, 100 μl of the FeCl3, and 100 μl of the ADP. The reaction was stopped by cooling with ice, and the amount of the lipid peroxide was calculated as an amount of malondialdehyde according to the method of Ohkawa et al.
That means, 200 μl of a 8.1% sodium dodecyl sulfate (SDS) aqueous solution, 1.5 ml of an acetic acid buffer solution (20% AcOH containing 0.27M HCl was controlled with 10M NaOH to have a pH of 3.5), and 1.5 ml of a 0.8% 2-thiobarbituric acid aqueous solution were added to 1 ml of the reaction mixture and heated in a boiling water bath for 20 minutes Following heating, the reaction was stopped with cooling with ice and 4 ml of n-BuOH-pyridine mixed solution (15:1) was added thereto and mixed vigorously. Then the mixture was subjected to centrifugation at 800×g for 10 minutes and the absorbancy of the supernatant liquid was measured at 532 nm.

In assay [1] the test system is rat cutaneous anaphylactic reaction (PCA reaction). In words: Antiallergic action in an orally administered rat, 48 hours homologous PCA reaction. To be noted: Wistar male rat, oral, 2 hours before antigen; versus tranilast (FIG. 2). The class given is in vivo. As for the experimental part:
Test Example 4--Antiallergic action in an orally administered rat (PCA method)
The antiallergic actions of Compound II-Compound VII were evaluated using rat cutaneous anaphylactic reaction (PCA reaction) employing tranilast, which is an oral antiallergic agent, as a positive control compound.
Test method (Antiallergic action by PCA reaction)
The test was carried out according to the method of Koda et al, {Int. Arch. Allergy Appl. Immunol. 87, 254(1988)}. The dorsum of a Wistar-strain male rat having a body weight of about 200 g was shaved and 0.1 ml of an antiserum showing 48 hours homologous PCA strength of 1:128-1:256 diluted with physiological saline was injected into the dorsum intracutaneously. […] After 30 minutes, the rat was brought to death by exsanguination and the pigment freckle generated on the back skin was cut out and the amount of the transuded pigment was determined. That means, the cut out skin was put in a test tube, 1 ml of 1N KOH was added and allowed to stand overnight at 37° C. to elute the pigment, and 9 ml of a mixture comprising acetone and 0.6N phosphoric acid (mixed at 13:5) was added thereto and shaken, and the insoluble substances were removed by filtration and the absorbency of the filtrate was measured at 620 nm and the amount of the pigment was determined. […]

For another assay, the target named is T1, guinea pig bowel (Cavia porcellus, UniProt P31389).
T1 construct: the ileum was excised to a length of about 2 cm; from tissue; host or cells: guinea pig ileum
Kind of assay: Antihistaminic action with guinea pig bowel by Magnus' method. The settings on record: guinea pig ileum, histamine dose reaction curve, 37° C.; read-out: pA2 (index of the antihistaminic action) (converted). On the procedure:
Test Example 3--Antihistaminic action
The antihistaminic action of the Compound V was tested with a guinea pig bowel by Magnus' method using diphenhydramine hydrochloride as a positive control.
A guinea pig which had been fasted overnight was struck to death and the ileum was excised to a length of about 2 cm and one end was suspended in an isotonic transducer and the other end was secured onto a fixed rod. The temperature of the temperature controlled bath was kept at 37° C. and the ileum was allowed to stand for about 30 minutes while a mixed gas comprising 95% of O2 and 5% of CO2 was introduced into 10 ml of Tyrode solution, and histamine of different concentrations was injected for training, then a dose reaction curve was obtained by administering histamine accumulatively in order of increasing concentration. Then after washing, a dose reaction curve in relation to the histamine was similarly obtained under administration of the specimen and pA2 was calculated.

The target in the next assay is T2, 5-lipoxygenase (Rattus norvegicus, UniProt P12527).
T2 construct: subjected to supersonic treatment and the cells were disrupted; endogenous in cells; host or cells: RBL-1 cells (homogenate)
T2 sequence (P12527 1-673): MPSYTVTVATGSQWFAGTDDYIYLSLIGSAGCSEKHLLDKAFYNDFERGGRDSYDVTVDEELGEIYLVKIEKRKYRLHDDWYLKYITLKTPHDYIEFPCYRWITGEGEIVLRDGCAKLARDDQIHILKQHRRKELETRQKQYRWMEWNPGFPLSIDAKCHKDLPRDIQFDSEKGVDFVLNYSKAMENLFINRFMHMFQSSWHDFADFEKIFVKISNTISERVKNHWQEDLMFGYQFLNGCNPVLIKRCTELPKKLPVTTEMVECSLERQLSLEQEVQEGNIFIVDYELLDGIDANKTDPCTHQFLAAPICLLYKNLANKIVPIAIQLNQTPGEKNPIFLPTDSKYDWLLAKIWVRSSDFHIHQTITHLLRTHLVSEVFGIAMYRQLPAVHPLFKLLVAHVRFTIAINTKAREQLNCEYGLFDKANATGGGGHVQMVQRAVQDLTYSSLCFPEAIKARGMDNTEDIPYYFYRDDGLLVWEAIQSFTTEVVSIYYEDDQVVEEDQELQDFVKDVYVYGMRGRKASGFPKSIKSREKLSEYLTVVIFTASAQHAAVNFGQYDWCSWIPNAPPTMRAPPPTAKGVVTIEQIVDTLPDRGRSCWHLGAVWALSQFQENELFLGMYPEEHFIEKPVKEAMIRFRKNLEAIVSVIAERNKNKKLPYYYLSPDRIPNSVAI
In words: 5-lipoxygenase inhibiting action (leucotriene production inhibiting action), RBL-1 cell homogenate. The class given is biochemical. The settings on record: arachidonic acid, 37° C., 5-HETE by HPLC.

T1 sequence (P31389 whole entry): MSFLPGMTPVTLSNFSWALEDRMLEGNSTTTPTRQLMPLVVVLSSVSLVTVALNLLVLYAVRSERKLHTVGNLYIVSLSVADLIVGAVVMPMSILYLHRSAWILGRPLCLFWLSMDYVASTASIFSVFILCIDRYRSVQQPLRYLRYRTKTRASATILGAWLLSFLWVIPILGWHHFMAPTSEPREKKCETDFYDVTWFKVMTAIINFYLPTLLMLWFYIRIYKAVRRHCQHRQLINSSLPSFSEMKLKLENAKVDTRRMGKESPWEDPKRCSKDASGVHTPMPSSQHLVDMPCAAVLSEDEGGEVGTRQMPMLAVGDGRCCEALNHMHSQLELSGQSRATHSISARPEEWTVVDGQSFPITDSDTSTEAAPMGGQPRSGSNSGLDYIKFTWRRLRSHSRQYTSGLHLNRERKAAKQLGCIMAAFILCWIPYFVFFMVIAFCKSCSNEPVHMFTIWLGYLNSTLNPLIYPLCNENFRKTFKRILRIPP
Description for 5-lipoxygenase: Test method (5-lipoxygenase inhibition action)
That means, a RBL-1 cell suspension which was adjusted with a 50 mM phosphate buffer such that the number of cells became 1×10^7 cells/ml, was subjected to supersonic treatment and the cells were disrupted To 500 μl of the cell homogenate solution was added 10 μl of a specimen solution whose concentration was adjusted to different concentrations using a 1% DMSO, 10 μl of 100 mM CaCl2 and 10 μl of a 10 mg/ml arachidonic acid solution in MeOH and heated to 37° C. for 3 minutes. To a control was added 10 μl of a 1% DMSO instead of the specimen. To a blank, 10 μl of a 1% DMSO was added instead of the specimen, and 500 μl of a 50 mM phosphate buffer was added instead of RBL-1 cell suspension. Then 500 μl of MeOH was added thereto and the mixture was cooled with ice to stop the reaction, followed by mixing and centrifugation at 2000×g for 15 minutes Then the amount of 5-HETE in 10 μl of the supernatant liquid was measured using HPLC under the following conditions.
mobile phase; acetonitrile: 0.1% acetic acid=85:15
detection wave length; 235 nm
The inhibition ratio to 5-lipoxygenase activity was calculated according to the following formula.

On to `Cc1cc(OCCCN2CCN(C(c3ccccc3)c3ccccc3)CC2)c(C)c(C)c1O` [Compound III], for which the “inhibition action on lipid peroxidation compared with BHT” value (shortened to “inhibition action … compared with BHT”) in the assay with rat liver microsome is “higher inhibition actions than BHT”.

With `Cc1cc(OCCN2CCN(C(c3ccccc3)c3ccccc3)CC2)c(C)c(C)c1O` [Compound II], in the assay on rat liver microsome, the “inhibition action … compared with BHT” value is on record as “higher inhibition actions than BHT”.

With `Cc1cc(OCCCCN2CCN(C(c3ccccc3)c3ccccc3)CC2)c(C)c(C)c1O` [Compound IV], in the assay on rat liver microsome, the “inhibition action … compared with BHT” value is “higher inhibition actions than BHT”. The “antiallergic activity compared with the positive control compound (tranilast)” value in assay [1] was “higher activity than that of the positive control compound”.

One may read the IC50 as the point on the concentration scale where inhibition reaches its midpoint. For `Cc1cc(OCCCCCCN2CCN(C(c3ccccc3)c3ccccc3)CC2)c(C)c(C)c1O` [Compound V], the “anti-oxidant action, ranking among the compounds of Test Example 1” value with rat liver microsome (result in words) is reported as “highest anti-oxidant action”. Besides, the “inhibition action … compared with BHT” value with rat liver microsome is listed as “higher inhibition actions than BHT”. Besides, the “antiallergic activity compared with the positive control compound (tranilast)” value in assay [1] is on record as “higher activity than that of the positive control compound”. For the same compound, at guinea pig bowel, the Kb was 0.126 µM. This compound also came in with a 50% inhibitory concentration (IC50) against 5-lipoxygenase of 6.2 µM.

The values above are taken from US5910499A, “Antiallergic agent having an anti-oxidant action” (LTT Institute Co., Ltd., priority 1997, dated 1999).
